In the first assay the target is T1, NMDA receptor composed of four subunits including 2 sets of heterodimers of NR1 and NR2B (Homo sapiens, UniProt Q13224).
T1 construct: host or cells: HEK293 (tetracycline-induced expression)
T1 sequence (Q13224 27-1484, other chains not shown): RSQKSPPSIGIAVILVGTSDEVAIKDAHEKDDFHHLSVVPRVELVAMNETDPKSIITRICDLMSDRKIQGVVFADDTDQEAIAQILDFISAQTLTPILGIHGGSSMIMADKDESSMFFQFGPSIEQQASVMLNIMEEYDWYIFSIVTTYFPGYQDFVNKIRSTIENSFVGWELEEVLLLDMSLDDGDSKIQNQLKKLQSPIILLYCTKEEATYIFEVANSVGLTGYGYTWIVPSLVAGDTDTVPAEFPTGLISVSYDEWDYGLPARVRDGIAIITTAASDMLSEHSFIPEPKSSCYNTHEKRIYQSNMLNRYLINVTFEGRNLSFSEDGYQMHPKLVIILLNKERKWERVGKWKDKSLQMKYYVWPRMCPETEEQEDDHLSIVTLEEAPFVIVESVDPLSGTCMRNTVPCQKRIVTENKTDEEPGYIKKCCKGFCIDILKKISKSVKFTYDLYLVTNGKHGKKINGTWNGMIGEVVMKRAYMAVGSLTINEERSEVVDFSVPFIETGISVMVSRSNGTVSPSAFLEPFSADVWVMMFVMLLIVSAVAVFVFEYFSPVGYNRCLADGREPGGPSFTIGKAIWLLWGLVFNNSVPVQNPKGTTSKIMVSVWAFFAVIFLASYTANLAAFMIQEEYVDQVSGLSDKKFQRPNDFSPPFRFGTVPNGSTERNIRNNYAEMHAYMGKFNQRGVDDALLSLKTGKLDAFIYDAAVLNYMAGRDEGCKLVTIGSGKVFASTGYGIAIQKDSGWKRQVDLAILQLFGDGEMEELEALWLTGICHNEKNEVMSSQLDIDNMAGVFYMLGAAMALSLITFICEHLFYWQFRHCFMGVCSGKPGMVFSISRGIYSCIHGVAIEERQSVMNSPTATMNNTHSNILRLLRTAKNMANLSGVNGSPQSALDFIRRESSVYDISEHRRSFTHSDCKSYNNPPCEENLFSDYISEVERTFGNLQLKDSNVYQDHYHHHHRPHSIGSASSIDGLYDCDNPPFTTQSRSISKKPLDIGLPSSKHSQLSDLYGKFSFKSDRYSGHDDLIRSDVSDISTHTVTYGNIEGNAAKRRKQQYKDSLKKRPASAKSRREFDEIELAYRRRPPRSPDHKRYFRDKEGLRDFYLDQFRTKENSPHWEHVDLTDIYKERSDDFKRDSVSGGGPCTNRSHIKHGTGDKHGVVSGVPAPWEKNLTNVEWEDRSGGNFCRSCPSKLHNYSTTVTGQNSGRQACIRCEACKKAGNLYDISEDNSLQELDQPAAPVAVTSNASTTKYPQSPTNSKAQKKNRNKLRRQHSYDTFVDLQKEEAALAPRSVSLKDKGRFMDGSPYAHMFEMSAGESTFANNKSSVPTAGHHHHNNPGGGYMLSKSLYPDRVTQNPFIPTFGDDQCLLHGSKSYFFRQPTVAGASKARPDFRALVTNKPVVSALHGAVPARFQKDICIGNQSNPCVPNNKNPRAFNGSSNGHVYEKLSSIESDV
As to the kind of experiment: NR2B Ca2+ influx assay (FLIPR, Fluo-4) in HEK293 cells expressing human GRIN1 and GRIN2B. In kind it is cell-based. The conditions noted are these: 10 μM final compound concentration, glutamic acid/glycine-induced Ca2+ influx. The text has this: To confirm the “antagonistic action on an NMDA receptor containing the NR2B subunit” of the compound of the present invention, human embryonic kidney cell expressing the “NMDA receptor composed of four subunits including 2 sets of heterodimers of NR1 and NR2B”, specifically HEK293 cell expressing human glutamate ionotropic receptor NMDA type subunit 1 (GRIN1) and human glutamate ionotropic receptor NMDA type subunit 2B (GRIN2B), was used and the activation suppressive effect on the receptors was measured.
As an index of the NMDA receptor activation, intracellular calcium ion (Ca^2+) influx caused by the binding of glycine and glutamic acid with NR1 and NR2B, respectively, was used. HEK293 cells were purchased from ChanTest. The cells were cultured in a DMEM/F-12 (COSMO BIO, 10-092-CM) medium added with 10% FBS′(fetal bovine serum, AusGene), 100 units/mL penicillin, 100 μg/mL streptomycin, 500 μg/mL neomycin, 100 μg/mL Zeocin, 5 μg/mL Blasticidin at 37° C., 5% CO2. The cells were detached from flask with trypsin the day before the assay, suspended in a seeding medium (DMEM (Invitrogen, 31053) added with 10% FBS, 100 units/mL penicillin, 100 μg/mL streptomycin) at 8×10^5 cells/mL, seeded by 25 μL per well in a 384-well plate (Falcon, 356663) at 20000 cells/well, and cultured overnight in an incubator. On the day of the assay, tetracycline (Wako Pure Chemical Industries, Ltd., 209-16561) was diluted with the seeding medium at 2 μg/mL, added at […] to the plate seeded with the cells, and cultured for 2 hr in an incubator. Thereafter, the medium was removed, and the cells were washed with 50 μL/well assay buffer (137 mM NaCl, 4 mM KCl, 1.8 mM CaCl2, 10 mM HEPES (pH 7.2), 10 mM Glucose, 0.1% BSA). Then, a loading buffer (assay buffer added with 2.5 uM Fluo-4AM, 2 mM Amaranth, 1 mM Tartrazine) was added at 25 μL/well, and loading was performed in the incubator for 30 min, and at room temperature for 15 min. A solution (25 μL) of the Example compound diluted with the above-mentioned assay buffer at 30 μM (final concentration 10 μM) was added, and the cells were stood for 15 min at room temperature. Using FLIPR (Molecular Devices), 25 μL of an assay buffer containing 30 μM glutamic acid, 30 μM glycine was added, and the fluorescence signal was measured every 3 seconds for 5 min. The inhibitory activity was calculated as a relative activity value (inhibitory rate) that inhibits 100% of the cumulative value of the fluorescence value of a well added with a buffer free of glutamic acid, glycine, relative to the cumulative value of the fluorescence value of each well.
Take `COc1ccc2ncn(C)c2c1CNC(=O)c1ccc(C(F)(F)F)s1` [Example 50, N-((6-methoxy-1-methyl-1H-benzimidazol-7-yl)-methyl)-5-(trifluoro-methyl)thiophene-2-carboxainide]: the “inhibitory rate (10 μM compound concentration)” value is listed as 89.

The assay is the same for the next values; noted with them: HEK293, 10 μM final compound concentration, glutamic acid/glycine-induced Ca2+ influx, read-out: inhibitory rate (10 μM compound concentration).
Take `COc1ccc2ncn(C)c2c1CNC(=O)c1cc(C)c(OC)c(C)c1` [Example 35, 4-methoxy-N-((6-methoxyl-methyl-1H-benzimidazol-7-yl)methyl)-3,5-dimethylbenzamide]: the inhibition at 10 µM was 77%.

Regarding `COc1ccc2ncn(C)c2c1CNC(=O)c1ccc(Cl)s1` [Example 36, 5-chloro-N-((6-methoxy-1-methyl-1H-benzimidazol-7-yl)methyl)-thiophene-2-carboxamide], the inhibition at 10 µM is 89%.

For `COc1ccc2ncn(C)c2c1CNC(=O)c1ccc(F)c(Cl)c1` [Example 37, 3-chloro-4-fluoro-N-((6-methoxy-1-methyl-1H-benzimidazol-7-yl)methyl)benzamide], the inhibition at 10 µM worked out at 91%.

In the case of `COc1ccc2ncn(C)c2c1CNC(=O)c1ccc(C)c(Cl)c1` [Example 38, 3-chloro-N-((6-methoxy-1-methyl-1H-benzimidazol-7-yl)-methyl)-4-methylbenzamide], the inhibition at 10 µM came out at 91%.

For `COc1ccc2ncn(C)c2c1CNC(=O)c1ccc(Cl)c(C)c1` [Example 39, 4-chloro-N-((6-methoxy-1-methyl-1H-benzimidazol-7-yl)-methyl)-3-methyl-benzamide], the inhibition at 10 µM was found to be 91%.

On to `COc1ccc2ncn(C)c2c1CNC(=O)c1ccc(F)c(C(F)(F)F)c1` [Example 40, 4-fluoro-N-((6-methoxy-1-methyl-1H-benzimidazol-7-yl)methyl)-3-(trifluoro-methyl)benzamide], for which the inhibition at 10 µM is 89%.

`COc1ccc2ncn(C)c2c1CNC(=O)c1cc(F)c(F)c(F)c1` [Example 41, 3,4,5-trifluoro-N-((6-methoxy-1-methyl-1H-benzimidazol-7-yl)methyl)benzamide]: the inhibition at 10 µM stood at 90%.

On to `COc1ccc2ncn(C)c2c1CNC(=O)c1cc(Cl)cs1` [Example 42, 4-chloro-N-((6-methoxy-1-methyl-1H-benzimidazol-7-yl)-methyl)thiophene-2-carboxamide], for which the inhibition at 10 µM was 87%.

In the case of `COc1ccc2ncn(C)c2c1CNC(=O)c1cc(C)cs1` [Example 43, N-((6-methoxy-1-methyl-1H-benzimidazol-7-yl)-methyl)-4-methylthiophene-2-carboxamide], the inhibition at 10 µM was 61%.

Turning to `COc1ccc2ncn(C)c2c1CNC(=O)c1ccc(Cl)c(F)c1` [Example 44, 4-chloro-3-fluoro-N-((6-methoxy-1-methyl-1H-benzimidazol-7-yl)methyl)benzamide], the inhibition at 10 µM stood at 89%.

With `COc1cc(C(=O)NCc2c(OC)ccc3ncn(C)c23)ccc1Cl` [Example 45, 4-chloro-3-methoxy-N-((6-methoxy-1-methyl-1H-benzimidazol-7-yl)methyl)benzamide], the inhibition at 10 µM turned out to be 64%.

On to `COc1cc(C(=O)NCc2c(OC)ccc3ncn(C)c23)ccc1F` [Example 46, 4-fluoro-3-methoxy-N-((6-methoxy-1-methyl-1H-benzimidazol-7-yl)methyl)benzamide], for which the inhibition at 10 µM was 68%.

Take `COc1ccc2ncn(C)c2c1CNC(=O)c1ccc(C)c(C(F)(F)F)c1` [Example 47, N-((6-methoxy-1-methyl-1H-benzimidazol-7-yl)-methyl)-4-methyl-3-(trifluoromethyl)benzamide]: the inhibition at 10 µM turned out to be 85%.

In the case of `COc1ccc(C(=O)NCc2c(OC)ccc3ncn(C)c23)s1` [Example 48, 5-methoxy-N-((6-methoxy-1-methyl-1H-benzimidazol-7-yl)methyl)thiophene-2-carboxamide], the inhibition at 10 µM stood at 84%.

In the case of `COc1ccc2ncn(C)c2c1CNC(=O)c1cc(Cl)c(F)c(Cl)c1` [Example 49, 3,5-dichloro-4-fluoro-N-((6-methoxy-1-methyl-1H-benzimidazol-7-yl)methyl)benzamide], the inhibition at 10 µM amounted to 69%.

For `COc1ccc2ncn(C)c2c1CNC(=O)c1ccc(C(F)(F)F)c(Cl)c1` [Example 51, 3-chloro-N-((6-methoxy-1-methyl-1H-benzimidazol-7-yl)-methyl)-4-(trifluoro-methyl)benzamide], the inhibition at 10 µM was found to be 90%.

Take `COc1ccc2ncn(C)c2c1CNC(=O)c1ccc(OC(F)(F)F)c(F)c1` [Example 52, 3-fluoro-N-((6-methoxy-1-methyl-1H-benzimidazol-7-yl)methyl)-4-(trifluoro-methoxy)benzamide]: the inhibition at 10 µM worked out at 91%.

Turning to `COc1ccc2ncn(C)c2c1CNC(=O)c1cc(Cl)c(Cl)s1` [Example 53, 4,5-dichloro-N-((6-methoxy-1-methyl-1H-benzimidazol-7-yl)-methyl)thiophene-2-carboxamide], the inhibition at 10 µM is 91%.

With `COc1ccc2ncn(C)c2c1CNC(=O)c1cc(C)c(F)c(F)c1` [Example 54, 3,4-difluoro-N-((6-methoxy-1-methyl-1H-benzimidazol-7-yl)-methyl)-5-methyl-benzamide], the inhibition at 10 µM was 85%.

With `COc1ccc2ncn(C)c2c1CNC(=O)c1cc(F)c(Cl)c(Cl)c1` [Example 55, 3,4-dichloro-5-fluoro-N-((6-methoxy-1-methyl-1H-benzimidazol-7-yl)methyl)benzamide], the inhibition at 10 µM came to 90%.

Turning to `COc1ccc2ncn(C)c2c1CNC(=O)c1ccc(OC(F)(F)F)nc1` [Example 56, ((6-methoxy-1-methyl-1H-benzimidazol-7-yl)methyl)-6-(trifluoro-methoxy)nicotinamide], the inhibition at 10 µM was found to be 93%.

Consider `COc1ccc2ncn(C)c2c1CNC(=O)c1cnc(OC)c(Cl)c1` [Example 57, 5-chloro-6-methoxy-N-((6-methoxy-1-methyl-1H-benzimidazol-7-yl)methyl)nicotinamide], for which the inhibition at 10 µM was 91%.

On to `CCOc1ncc(C(=O)NCc2c(OC)ccc3ncn(C)c23)cc1Cl` [Example 58, 5-chloro-6-ethoxy-N-((6-methoxy-1-methyl-1H-benzimidazol-7-yl)methyl)nicotinamide], for which the inhibition at 10 µM was determined as 93%.

As for `COc1ccc2ncn(C)c2c1CNC(=O)c1cnc(OC(F)F)c(F)c1` [Example 59, 6-(difluoromethoxy)-5-fluoro-N-((6-methoxy-1-methyl-1H-benzimidazol-7-yl)-methyl)nicotinamide], the inhibition at 10 µM is 94%.

Consider `Cc1ccc2ncn(C)c2c1CNC(=O)c1ccc(OC(F)(F)F)c(Cl)c1` [Example 60, 3-chloro-N-((1,6-dimethyl-1H-benzimidazol-7-yl)-methyl)-4-(trifluoro-methoxy)benzamide], for which the inhibition at 10 µM stood at 94%.

Turning to `O=C(NCc1c(C2CC2)ccc2[nH]ncc12)c1ccc(C(F)(F)F)cc1` [Example 61, N-((5-cyclopropyl-1H-indazol-4-yl)methyl)-4-(trifluoromethyl)-benzamide], the inhibition at 10 µM came out at 94%.

With `O=C(NCc1c(C2CC2)ccc2[nH]ncc12)c1ccc(OC(F)(F)F)cc1` [Example 62, N-((5-cyclopropyl-1H-indazol-4-yl)methyl)-4-(trifluoromethoxy)-benzamide], the inhibition at 10 µM turned out to be 94%.

On to `Cc1csc(C(=O)NCc2c(C3CC3)ccc3[nH]ncc23)c1` [Example 63, N-((5-cyclopropyl-1H-indazol-4-yl)methyl)-methylthiophene-2-carboxamide], for which the inhibition at 10 µM came to 89%.

As to `Cc1ccc(C(=O)NCc2c(C3CC3)ccc3[nH]ncc23)s1` [Example 64, N-((5-cyclopropyl-1H-indazol-4-yl)methyl)-methylthiophene-2-carboxamide], the inhibition at 10 µM amounted to 91%.

In the case of `O=C(Cc1cccs1)NCc1c(C2CC2)ccc2[nH]ncc12` [Example 65, N-((5-cyclopropyl-1H-indazol-4-yl)methyl)-2-(2-thienyl)acetamide], the inhibition at 10 µM worked out at 90%.

Regarding `Cc1cc(C(=O)NCc2c(C3CC3)ccc3[nH]ncc23)cs1` [Example 66, N-((5-cyclopropyl-1H-indazol-4-yl)methyl)-methylthiophene-3-carboxamide], the inhibition at 10 µM was 91%.
